Data from ChEMBL document CHEMBL1128058, “Synthesis of novel iodinated radioligands with high affinity and selectivity for CCK-B/gastrin receptors” (Bioorg Med Chem Lett, 1995).

What was measured:
[1] = target: T1, Cholecystokinin receptor type A (Rattus norvegicus, UniProt P30551); test: Binding affinity towards CCK-A receptor in rat pancreas membrane using Hunter labelled CCK-8S assay; assay type: cell membranes
T1 sequence (P30551 whole entry): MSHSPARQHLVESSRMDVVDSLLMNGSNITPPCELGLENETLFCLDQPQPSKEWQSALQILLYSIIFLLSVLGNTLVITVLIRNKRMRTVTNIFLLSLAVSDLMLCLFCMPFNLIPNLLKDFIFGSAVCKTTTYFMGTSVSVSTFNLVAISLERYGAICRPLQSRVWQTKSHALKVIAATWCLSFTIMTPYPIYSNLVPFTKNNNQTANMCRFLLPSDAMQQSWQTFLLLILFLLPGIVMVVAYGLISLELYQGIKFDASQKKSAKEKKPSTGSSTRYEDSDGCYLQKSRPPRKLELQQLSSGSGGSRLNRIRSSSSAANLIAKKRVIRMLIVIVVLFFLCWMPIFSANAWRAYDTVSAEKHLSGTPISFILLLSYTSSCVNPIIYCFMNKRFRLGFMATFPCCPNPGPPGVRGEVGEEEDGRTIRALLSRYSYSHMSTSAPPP

[2] = target: T2, Gastrin/cholecystokinin type B receptor (Mus musculus, UniProt P56481); test: Binding affinity towards CCK-B receptor in mouse cerebral cortex membrane using [125I]bolton assay; assay type: cell membranes
T2 sequence (P56481 whole entry): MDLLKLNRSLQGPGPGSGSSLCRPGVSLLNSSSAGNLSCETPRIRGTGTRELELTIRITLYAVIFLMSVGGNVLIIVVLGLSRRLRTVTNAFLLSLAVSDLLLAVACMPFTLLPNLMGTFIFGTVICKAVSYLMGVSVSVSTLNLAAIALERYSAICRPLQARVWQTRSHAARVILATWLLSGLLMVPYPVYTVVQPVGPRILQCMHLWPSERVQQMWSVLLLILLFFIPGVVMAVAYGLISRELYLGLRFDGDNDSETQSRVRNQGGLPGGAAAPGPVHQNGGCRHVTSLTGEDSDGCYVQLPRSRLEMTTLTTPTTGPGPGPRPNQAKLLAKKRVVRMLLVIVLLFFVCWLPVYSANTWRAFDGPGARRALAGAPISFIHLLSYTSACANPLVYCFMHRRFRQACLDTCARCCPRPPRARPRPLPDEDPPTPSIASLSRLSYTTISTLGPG

Ki [1] [nM]	Ki [2] [nM]	SMILES
392	0.88	C[C@](Cc1c[nH]c2ccccc12)(NC(=O)OC1C2CC3CC(C2)CC1C3)C(=O)N[C@@H](CC(=O)O)Cc1ccc(N=[N+]=[N-])c(I)c1 (some centres undefined)
158	0.52	C[C@](Cc1c[nH]c2ccccc12)(NC(=O)OC1C2CC3CC(C2)CC1C3)C(=O)N[C@@H](CC(=O)O)Cc1ccc(N)c(I)c1 (some centres undefined)
